Measurements: patent publication US6878700B1, “Cell adhesion-inhibiting antiinflammatory and immune-suppressive compounds” (Abbott Laboratories, priority 1998, dated 2005)
Counter-ions that a name gives are not always drawn.

assay: Water solubility of the isolated potassium salt; format: physicochemical; settings: solid obtained from the acid with KOH in MeOH (potassium salt)
Experimental: The compound of Example 137 was hydrolyzed using an excess of aqueous 10% NaOH in methanol, stirring overnight. The reaction mixture was concentrated in vacuo, water was added, and the solution was extracted with ether. The mixture was acidified; the resultant solid was collected by filtration and dried overnight in a vacuum oven, giving a white solid, m.p. 166-171C. ^1H-NMR (DMSO 300 MHz) δ 1.17 (t, J=7 Hz, 3H), broad peaks totaling 9 protons at 1.32-1.48, 1.51-1.78, 1.90-2.04, 2.25-2.50, 2.80-2.90, 2.95-3.17, 3.45-3.51, 3.95-4.19, 4.41-4.51, 4.06 (q, J=7 Hz, 1H), 6.80 (d, J=9 Hz, 1H), 7.01 (t, J=7 Hz, 1H), 7.15 (d, J=8 Hz, 1H), 7.26-7.40 (m, 2H), 7.40-7.48 (m, 1H), 7.51 (dd, J=9 Hz, 2 Hz, 1H), 7.99 (d, J=9 Hz, 1H). Anal. Calcd. for C23H24ClNO4S: C, 61.94; H, 5.42; N, 3.14. Found: C, 61.75; H, 5.65; N, 3.15. The resultant acid (303 mg, 0.631 mmol) was dissolved in 3 mL MeOH. A KOH solution (38 mg, 0.595 mmol, of 87.6% KOH) in 1 ml MeOH was added. The resulting solution was concentrated in vacuo, and 5 mL ether was added. The mixture was stirred for one hour to form a powder, which was filtered and dried in the vacuum oven at 60C to yield 307 mg of a solid, water soluble product. […]

solubility in water | SMILES
water-soluble | CCOc1ccccc1Sc1ccc(/C=C/C(=O)N2CCCC(C(=O)O)C2)c(Cl)c1Cl (stereo not shown) [Example 343]
water soluble | CCOc1ccccc1Sc1ccc(/C=C/C(=O)N2CCCC(C(=O)O)C2)cc1Cl (stereo not shown) [Example 155, (2-Ethoxyphenyl)-[2-chloro-4-(E-[(3-carboxypiperidin-1-yl)carbonyl]ethenyl)phenyl]sulfide]

assay: not given; settings: not given

melting point | SMILES
88 °C (dec.) | O=C(O)C1CCN(C(=O)/C=C/c2ccc(Sc3ccc4c(c3)OCCO4)c(C(F)(F)F)c2)CC1 [Example 263, (Benzodioxan-6-yl)[2-trifluoromethyl-4-(E-((4-carboxypiperidin-1-yl)carbonyl)ethenyl)phenyl]sulfide]
70 to 72 °C | COC(=O)C1CNCCN1C(=O)/C=C/c1ccc(Sc2ccc3c(c2)OCCO3)c(C(F)(F)F)c1 (stereo not shown) [Example 255, (Benzodioxan-6-yl)[2-trifluoromethyl-4-(E-((2-carbomethoxypiperazin-1-yl)carbonyl)ethenyl)phenyl]sulfide]
230 to 240 °C (dec.) | Nc1ccccc1Sc1ccc(/C=C/C(=O)N2CCOCC2)c(Cl)c1Cl [Example 410, (2-Aminophenyl)[2,3-dichloro-4-(E-((4-morpholinyl)carbonyl)ethenyl)phenyl]sulfide]
90 °C (dec.) | O=C(O)C1CCCCN1C(=O)/C=C/c1ccc(Sc2ccc3c(c2)OCCO3)c(C(F)(F)F)c1 (stereo not shown) [Example 264, (Benzodioxan-6-yl)[2-trifluoromethyl-4-(E-((2-carboxypiperidin-1-yl)carbonyl)ethenyl)phenyl]sulfide]
102 °C (dec.) | COC(=O)N1CCN(C(=O)/C=C/c2ccc(Sc3ccc4c(c3)OCCO4)c(C(F)(F)F)c2)C(C(=O)O)C1 (stereo not shown) [Example 271, (Benzodioxan-6-yl)[2-trifluoromethyl-4-(E-((2-carboxy-4-methoxycarbonylpiperazin-1-yl)carbonyl)ethenyl)phenyl]sulfide]
165 °C (dec.) | O=C(O)C1CCCCN1C(=O)/C=C/c1ccc(Sc2ccc3c(c2)OCCO3)c([N+](=O)[O-])c1 (stereo not shown) [Example 220, (Benzodioxan-6-yl)[2-nitro-4-(E-((2-carboxypiperidin-1-yl)carbonyl)ethenyl)phenyl]sulfide]
56 °C (dec.) | COC(=O)C1CN(C(=O)/C=C/c2ccc(Sc3ccc4c(c3)OCCO4)c(C(F)(F)F)c2)CCN1C(=O)OC (stereo not shown) [Example 269, (Benzodioxan-6-yl)[2-trifluoromethyl-4-(E-((3-carbomethoxy-4-methoxycarbonylpiperazin-1-yl)carbonyl)ethenyl)phenyl]sulfide]
73 to 75 °C | CCOC(=O)C1CCCN(C(=O)/C=C/c2ccc(Sc3ccc4c(c3)OCCO4)c([N+](=O)[O-])c2)C1 (stereo not shown) [Example 197, (Benzodioxan-6-yl)[2-nitro-4-(E-((3-carboethoxypiperidin-1-yl)carbonyl)ethenyl)phenyl]sulfide]
120 °C (dec.) | O=C(O)CN1CCN(C(=O)/C=C/c2ccc(Sc3ccc4c(c3)OCCO4)c([N+](=O)[O-])c2)CC1 (as salt: salt) [Example 221, (Benzodioxan-6-yl)[2-nitro-4-(E-((4-carboxymethylpiperazin-1-yl)carbonyl)ethenyl)phenyl]sulfide]
74 to 75 °C | CCOC(=O)C1CCCCN1C(=O)/C=C/c1ccc(Sc2ccc3c(c2)OCCO3)c([N+](=O)[O-])c1 (stereo not shown) [Example 203, (Benzodioxan-6-yl)[2-nitro-4-(E-((2-carboethoxypiperidin-1-yl)carbonyl)ethenyl)phenyl]sulfide]
170 to 171 °C | CCOc1ccccc1Sc1ccc(/C=C/C(=O)N2CCCCC2C(=O)O)cc1Cl (stereo not shown) [Example 158, (2-Ethoxyphenyl)-[2-chloro-4-(E-[(2-carboxypiperidin-1-yl)carbonyl]ethenyl)phenyl]sulfide]
166 to 171 °C | CCOc1ccccc1Sc1ccc(/C=C/C(=O)N2CCCC(C(=O)O)C2)cc1Cl (stereo not shown) [Example 155, (2-Ethoxyphenyl)-[2-chloro-4-(E-[(3-carboxypiperidin-1-yl)carbonyl]ethenyl)phenyl]sulfide]

SMILES | melting point
CC(C)(C)OC(=O)N1CCN(C(=O)/C=C/c2ccc(Sc3ccc4c(c3)OCCO4)c([N+](=O)[O-])c2)CC1 [Example 205, (Benzodioxan-6-yl)[2-nitro-4-(E-((4-tert-butoxycarbonylpiperazin-1-yl)carbonyl)ethenyl)phenyl]sulfide] | 165 to 167 °C
COC(=O)C1CN(C(=O)OC(C)(C)C)CCN1C(=O)/C=C/c1ccc(Sc2ccc3c(c2)OCCO3)c(C(F)(F)F)c1 (stereo not shown) [Example 253, (Benzodioxan-6-yl)[2-trifluoromethyl-4-(E-((2-carbomethoxy-4-tert-butoxycarbonylpiperazin-1-yl)carbonyl)ethenyl)phenyl]sulfide] | 85 to 87 °C
